Measurements as given in patent publication US20130053381A1, “2,4-DIOXO-1,4-DIHYDRO-2H-QUINAZOLIN-3-YL-SULFONAMIDE DERIVATIVES” (NOVARTIS AG, priority 2010, published 2013).

What follows are compounds tested on OF1 mice (assay: Maximal electroshock test (MES Test)). Settings: Mus musculus, po; 50 mg/kg, p.o., pre-treatment time −0.5 h (footnote d); read-out: %-Protection.
Type: in vivo
Summary of the method: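 Compound given p.o. (typically 50 mg/kg) 1 h before tonic-clonic convulsions were induced via temporal electrodes (50 Hz, 18 mA, 0.2 s); seizure lasting 3 s or less counted as protection. Read-out is percent protected of five mice per condition; ED50 calculated, blood exposure sampled after shock.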

Point of comparison: `CCC(=O)N(n1c(=O)[nH]c2cc(C(F)(F)F)c([C@H]3CCCO3)cc2c1=O)S(C)(=O)=O` [Example 10.02, N—((R)-2,4-Dioxo-6-tetrahydro-furan-2-yl-7-trifluoromethyl-1,4-dihydro-2H-quinazolin-3-yl)-N-propionyl-methanesulfonamide], responders at 50 mg/kg 60%. Against it:
- CC(=O)N(n1c(=O)[nH]c2cc(C(F)(F)F)c([C@H]3CCCO3)cc2c1=O)S(C)(=O)=O [Example 10.01, N-Acetyl-N—((R)-2,4-dioxo-6-tetrahydro-furan-2-yl-7-trifluoromethyl-1,4-dihydro-2H-quinazolin-3-yl)-methanesulfonamide] — lower, 40%
- CCCC(=O)N(n1c(=O)[nH]c2cc(C(F)(F)F)c([C@H]3CCCO3)cc2c1=O)S(C)(=O)=O [Example 10.03] — the same, 60%

Same assay, conditions: Mus musculus, po; 50 mg/kg, p.o., pre-treatment time −1 h; read-out: %-Protection

Point of comparison: `CCCCC(=O)N(n1c(=O)[nH]c2cc(C(F)(F)F)c([C@H]3CCCO3)cc2c1=O)S(C)(=O)=O` [Example 10.11, N—((R)-2,4-Dioxo-6-tetrahydro-furan-2-yl-7-trifluoromethyl-1,4-dihydro-2H-quinazolin-3-yl)-N-pentanoyl-methanesulfonamide], responders at 50 mg/kg 20%. Against it:
- CC(=O)N(n1c(=O)[nH]c2cc(C(F)(F)F)c([C@H]3CCCO3)cc2c1=O)S(C)(=O)=O [Example 10.01, N-Acetyl-N—((R)-2,4-dioxo-6-tetrahydro-furan-2-yl-7-trifluoromethyl-1,4-dihydro-2H-quinazolin-3-yl)-methanesulfonamide] — higher, 80%
- CCC(=O)N(n1c(=O)[nH]c2cc(C(F)(F)F)c([C@H]3CCCO3)cc2c1=O)S(C)(=O)=O [Example 10.02, N—((R)-2,4-Dioxo-6-tetrahydro-furan-2-yl-7-trifluoromethyl-1,4-dihydro-2H-quinazolin-3-yl)-N-propionyl-methanesulfonamide] — higher, 60%
- CCCC(=O)N(n1c(=O)[nH]c2cc(C(F)(F)F)c([C@H]3CCCO3)cc2c1=O)S(C)(=O)=O [Example 10.03] — higher, 100%
- COC(=O)N(n1c(=O)[nH]c2cc(C(F)(F)F)c([C@H]3CCCO3)cc2c1=O)S(C)(=O)=O [Example 10.04, Methanesulfonyl-N—((R)-2,4-dioxo-6-tetrahydro-furan-2-yl-7-trifluoromethyl-1,4-dihydro-2H-quinazolin-3-yl)-carbamic acid methyl ester] — the same, 20%
- CCOC(=O)N(n1c(=O)[nH]c2cc(C(F)(F)F)c([C@H]3CCCO3)cc2c1=O)S(C)(=O)=O [Example 10.05, Methanesulfonyl-N—((R)-2,4-dioxo-6-tetrahydro-furan-2-yl-7-trifluoromethyl-1,4-dihydro-2H-quinazolin-3-yl)-carbamic acid ethyl ester] — higher, 40%
- CCCCOC(=O)N(n1c(=O)[nH]c2cc(C(F)(F)F)c([C@H]3CCCO3)cc2c1=O)S(C)(=O)=O [Example 10.06, Methanesulfonyl-N—((R)-2,4-dioxo-6-tetrahydro-furan-2-yl-7-trifluoromethyl-1,4-dihydro-2H-quinazolin-3-yl)-carbamic acid butyl ester] — higher, 40%
- COCCOC(=O)N(n1c(=O)[nH]c2cc(C(F)(F)F)c([C@H]3CCCO3)cc2c1=O)S(C)(=O)=O [Example 10.07, Methanesulfonyl-N—((R)-2,4-dioxo-6-tetrahydro-furan-2-yl-7-trifluoromethyl-1,4-dihydro-2H-quinazolin-3-yl)-carbamic acid 2-methoxy-ethyl ester] — higher, 60%
- CC(C)COC(=O)N(n1c(=O)[nH]c2cc(C(F)(F)F)c([C@H]3CCCO3)cc2c1=O)S(C)(=O)=O [Example 10.08, Methanesulfonyl-N—((R)-2,4-dioxo-6-tetrahydro-furan-2-yl-7-trifluoromethyl-1,4-dihydro-2H-quinazolin-3-yl)-carbamic acid isobutyl ester] — the same, 20%
- CCCCCC(=O)N(n1c(=O)[nH]c2cc(C(F)(F)F)c([C@H]3CCCO3)cc2c1=O)S(C)(=O)=O [Example 10.09, N—((R)-2,4-Dioxo-6-tetrahydro-furan-2-yl-7-trifluoromethyl-1,4-dihydro-2H-quinazolin-3-yl)-N-hexanoyl-methanesulfonamide] — higher, 60%
- CCOC(=O)CCC(=O)N(n1c(=O)[nH]c2cc(C(F)(F)F)c([C@H]3CCCO3)cc2c1=O)S(C)(=O)=O [Example 10.10] — the same, 20%
- CCC(OC)c1cc2c(=O)n(N(C(=O)OCCOC)S(C)(=O)=O)c(=O)[nH]c2cc1C(F)(F)F (centres unmarked) [Example 11.01, Methanesulfonyl-[6-(1-methoxy-propyl)-2,4-dioxo-7-trifluoromethyl-1,4-dihydro-2H-quinazolin-3-yl]-carbamic acid 2-methoxy-ethyl ester] — higher, 60%
- CCC(=O)N(n1c(=O)[nH]c2cc(C(F)(F)F)c(C(CC)OC)cc2c1=O)S(C)(=O)=O (centres unmarked) [Example 11.02, N-[6-(1-Methoxy-propyl)-2,4-dioxo-7-trifluoromethyl-1,4-dihydro-2H-quinazolin-3-yl]-N-propionyl-methanesulfonamide] — higher, 100%
- CCOC(=O)N(n1c(=O)[nH]c2cc(C(F)(F)F)c(C(CC)OC)cc2c1=O)S(C)(=O)=O (centres unmarked) [Example 11.03, Methanesulfonyl-[6-(1-methoxy-propyl)-2,4-dioxo-7-trifluoromethyl-1,4-dihydro-2H-quinazolin-3-yl]-carbamic acid ethyl ester] — higher, 80%
- CCCOC(=O)N(n1c(=O)[nH]c2cc(C(F)(F)F)c(C(CC)OC)cc2c1=O)S(C)(=O)=O (centres unmarked) [Example 11.04, Methanesulfonyl-[6-(1-methoxy-propyl)-2,4-dioxo-7-trifluoromethyl-1,4-dihydro-2H-quinazolin-3-yl]-carbamic acid propyl ester] — the same, 20%
- CCCCCC(=O)N(n1c(=O)[nH]c2cc(C(F)(F)F)c(C(CC)OC)cc2c1=O)S(C)(=O)=O (centres unmarked) [Example 11.05, N-Hexanoyl-N-[6-(1-Methoxy-propyl)-2,4-dioxo-7-trifluoromethyl-1,4-dihydro-2H-quinazolin-3-yl]-methanesulfonamide] — higher, 80%
- CCC(OC)c1cc2c(=O)n(N(C(=O)C(C)C)S(C)(=O)=O)c(=O)[nH]c2cc1C(F)(F)F (centres unmarked) [Example 11.06, N-Isobutyryl-N-[6-(1-methoxy-propyl)-2,4-dioxo-7-trifluoromethyl-1,4-dihydro-2H-quinazolin-3-yl]-methanesulfonamide] — higher, 100%
- CCCC(=O)N(n1c(=O)[nH]c2cc(C(F)(F)F)c(C(CC)OC)cc2c1=O)S(C)(=O)=O (centres unmarked) [Example 11.07, N-Butyryl-N-[6-(1-methoxy-propyl)-2,4-dioxo-7-trifluoromethyl-1,4-dihydro-2H-quinazolin-3-yl]-methanesulfonamide] — higher, 100%
- CCC(OC)c1cc2c(=O)n(N(C(C)=O)S(C)(=O)=O)c(=O)[nH]c2cc1C(F)(F)F (centres unmarked) [Example 11.08, N-Acetyl-N-[6-(1-methoxy-propyl)-2,4-dioxo-7-trifluoromethyl-1,4-dihydro-2H-quinazolin-3-yl]-methanesulfonamide] — higher, 80%
- CCC(OC)c1cc2c(=O)n(N(C(=O)OC)S(C)(=O)=O)c(=O)[nH]c2cc1C(F)(F)F (centres unmarked) [Example 11.09, Methanesulfonyl-[6-(1-methoxy-propyl)-2,4-dioxo-7-trifluoromethyl-1,4-dihydro-2H-quinazolin-3-yl]-carbamic acid methyl ester] — higher, 80%
- CCC(OC)c1cc2c(=O)n(N(C(=O)OCC(C)C)S(C)(=O)=O)c(=O)[nH]c2cc1C(F)(F)F (centres unmarked) [Example 11.10, Methanesulfonyl-[6-(1-methoxy-propyl)-2,4-dioxo-7-trifluoromethyl-1,4-dihydro-2H-quinazolin-3-yl]-carbamic acid isobutyl ester] — higher, 100%
- CCCCOC(=O)N(n1c(=O)[nH]c2cc(C(F)(F)F)c(C(CC)OC)cc2c1=O)S(C)(=O)=O (centres unmarked) [Example 11.11, Methanesulfonyl-[6-(1-methoxy-propyl)-2,4-dioxo-7-trifluoromethyl-1,4-dihydro-2H-quinazolin-3-yl]-carbamic acid butyl ester] — higher, 60%
- CCCCCOC(=O)N(n1c(=O)[nH]c2cc(C(F)(F)F)c(C(CC)OC)cc2c1=O)S(C)(=O)=O (centres unmarked) [Example 11.12, Methanesulfonyl-[6-(1-methoxy-propyl)-2,4-dioxo-7-trifluoromethyl-1,4-dihydro-2H-quinazolin-3-yl]-carbamic acid pentyl ester] — the same, 20%
- CCCCCCOC(=O)N(n1c(=O)[nH]c2cc(C(F)(F)F)c(C(CC)OC)cc2c1=O)S(C)(=O)=O (centres unmarked) [Example 11.13, Methanesulfonyl-[6-(1-methoxy-propyl)-2,4-dioxo-7-trifluoromethyl-1,4-dihydro-2H-quinazolin-3-yl]-carbamic acid hexyl ester] — higher, 60%
- CCC(OC)c1cc2c(=O)n(N(C(=O)OC(C)C)S(C)(=O)=O)c(=O)[nH]c2cc1C(F)(F)F (centres unmarked) [Example 11.14, Methanesulfonyl-[6-(1-methoxy-propyl)-2,4-dioxo-7-trifluoromethyl-1,4-dihydro-2H-quinazolin-3-yl]-carbamic acid isopropyl ester] — higher, 60%
- CCCCC(=O)N(n1c(=O)[nH]c2cc(C(F)(F)F)c(C(CC)OC)cc2c1=O)S(C)(=O)=O (centres unmarked) [Example 11.15, N-[6-(1-methoxy-propyl)-2,4-dioxo-7-trifluoromethyl-1,4-dihydro-2H-quinazolin-3-yl]-N-pentanoyl-methanesulfonamide] — higher, 100%
- CCCCCC(=O)N(n1c(=O)[nH]c2cc(C(F)(F)F)c(C(O)CC)cc2c1=O)S(C)(=O)=O (centres unmarked) [Example 12.01, N-Hexanoyl-N-[6-(1-hydroxy-propyl)-2,4-dioxo-7-trifluoromethyl-1,4-dihydro-2H-quinazolin-3-yl]-methanesulfonamide] — higher, 40%
- CCC(O)c1cc2c(=O)n(N(C(=O)OCCOC)S(C)(=O)=O)c(=O)[nH]c2cc1C(F)(F)F (centres unmarked) [Example 12.02, Methanesulfonyl-[6-(1-hydroxy-propyl)-2,4-dioxo-7-trifluoromethyl-1,4-dihydro-2H-quinazolin-3-yl]-carbamic acid 2-methoxy-ethyl ester] — the same, 20%

Same assay, conditions: Mus musculus, po; 50 mg/kg, p.o., pre-treatment time −2 h (footnote a); read-out: %-Protection

With `CCCC(=O)N(n1c(=O)[nH]c2cc(C(F)(F)F)c(-n3cnnc3)cc2c1=O)S(C)(=O)=O` [Example 9.04, N-Butyryl-N-(2,4-dioxo-6-[1,2,4]triazol-4-yl-7-trifluoromethyl-1,4-dihydro-2H-quinazolin-3-yl)-methanesulfonamide] the responders at 50 mg/kg was 20%.
